Among the data in ChEMBL document CHEMBL1143910, “Synthesis of guanidino analogues of PMPDAP and their immunobiological activity” (Bioorg Med Chem, 2008) are Activity values, retold here.

SMILES strings stand for the structures. The source made the active and inactive calls. The rule behind the calls is not given here.

In series [1] the test system is Human immunodeficiency virus 2. The series can be described thus: Antiviral activity against HIV2. The series is classed as functional, organism-based.
For series [2], the system named is Maize streak virus. The series can be described thus: Antiviral activity against MSV. It counts as functional.
Series [3] concerns Human immunodeficiency virus 1. Kind of series: Antiviral activity against HIV1. It counts as functional, organism-based.
Series [4] relates to L929. Kind of series: Cytotoxicity against mouse L929 cells. The series is classed as cell-based.
Series [5] in a line: Cytotoxicity against human HeLaS3 cells. The series is classed as cell-based. The conditions noted are these: hela s3.
The subject of series [6] is L1210. Kind of series: Cytotoxicity against mouse L1210 cells. The series is classed as cell-based.
In series [7] the test system is Macrophage. Kind of series: Increase in IFN-gamma stimulated nitric oxide production in C57BL/6 mouse peritoneal macrophages at 100 uM after 24 hrs. The series is classed as functional, cell-based.
The nature of series [8]: Activation of TNFalpha secretion in C57BL/6 mouse peritoneal macrophages at 100 uM after 16 hrs by ELISA. It counts as functional, cell-based. The conditions noted are these: Macrophage. In general terms: An ELISA detects its analyte on a solid surface through an enzyme-linked reagent.
The test system of series [9] is Macrophage. Kind of series: Increase in IFN-gamma stimulated nitric oxide production in C57BL/6 mouse peritoneal macrophages at 10 to 25 uM after 24 hrs. The series is classed as functional, cell-based.
In series [10] the test system is PBMC. Kind of series: Activation of RANTES secretion in human PBMC at 50 uM after 16 hrs by ELISA. The series is classed as functional, cell-based.
Series [11] relates to Macrophage. Kind of series: Activation of RANTES secretion in C57BL/6 mouse peritoneal macrophages at 100 uM after 16 hrs by ELISA. The series is classed as functional, cell-based.
For series [12], the system named is PBMC. Kind of series: Activation of MIP1-alpha secretion in human PBMC at 50 uM after 16 hrs by ELISA. It counts as functional, cell-based.
Series [13] relates to Macrophage. Kind of series: Activation of MIP1-alpha secretion in C57BL/6 mouse peritoneal macrophages at 100 uM after 16 hrs by ELISA. It counts as functional, cell-based.

Turning to `C[C@@H](Cn1cnc2nc(N=C(N)N)ncc21)OCP(=O)(O)O`, the result in [1], in [2], in series [3] and in [7] was inactive. The Activity entry in series [4], in series [5] and in series [6] was “Not Active” each time.
Consider `C[C@H](Cn1cnc2c(N=C(N)N)ncnc21)OCP(=O)(O)O`, for which the result in series [1], in [2], in [3] and in series [7] was inactive. In addition, the Activity entry in series [4], in [5] and in [6] was “Not Active” throughout.
On to `C[C@@H](Cn1cnc2nc(N)nc(N=C(N)N)c21)OCP(=O)(O)O`, for which the outcome in [1], in series [2] and in series [3] was inactive. For the same compound, the Activity entry in series [4], in [5] and in series [6] was “Not Active” throughout. Moreover, the result in series [7] was Active.
On to `C[C@@H](Cn1cnc2c(N=C(N)N)nc(N)nc21)OCP(=O)(O)O`, for which the outcome in series [1], in series [2] and in series [3] was inactive. In addition, the Activity entry in series [4], in series [5] and in series [6] was “Not Active” in each case. Also, the result in [7] was Active.
For the compound `C[C@@H](Cn1cnc2c(N=C(N)N)ncnc21)OCP(=O)(O)O`, the outcome in [1], in [2], in [3] and in series [7] was inactive. In addition, the Activity result in series [4], in series [5] and in [6] was “Not Active” each time.
As for `C[C@H](Cn1cnc2ncnc(N=C(N)N)c21)OCP(=O)(O)O`, the outcome in [1], in series [2], in [3] and in series [7] was inactive. Also, the Activity entry in series [4], in series [5] and in series [6] was “Not Active” throughout.
As for `C[C@H](Cn1c(N=C(N)N)nc(N)c2ncnc1-2)OCP(=O)(O)O`, the result in series [1], in series [2] and in [3] was inactive. Also, the Activity entry in series [4], in series [5] and in [6] was “Not Active” throughout. For the same compound, in series [7], the outcome was Active.
`C[C@@H](Cn1cnc2ncnc(N=C(N)N)c21)OCP(=O)(O)O`: the result in series [1], in series [2], in series [3] and in series [7] was inactive. For the same compound, the Activity result in [4], in series [5] and in series [6] was “Not Active” in each case.
Regarding `C[C@@H](Cn1cnc2cnc(N=C(N)N)nc21)OCP(=O)(O)O`, the outcome in series [1], in series [2], in [3] and in series [7] was inactive. In addition, the Activity result in series [4], in [5] and in [6] was “Not Active” each time.
For `C[C@H](Cn1cnc2c(N)nc(N=C(N)N)nc21)OCP(=O)(O)O`, the outcome in [1], in series [2], in series [3] and in series [7] was inactive. Also, the Activity result in series [4], in series [5] and in series [6] was “Not Active” each time.
For `C[C@H](Cn1cnc2nc(N)nc(N=C(N)N)c21)OCP(=O)(O)O`, the result in series [1], in [2] and in series [3] was inactive. The Activity result in series [4], in [5] and in series [6] was “Not Active” in each case. For the same compound, the outcome in series [7] was Active.
`C[C@@H](Cn1cnc2c(N)nc(N=C(N)N)nc21)OCP(=O)(O)O`: the result in [1], in [2], in [3] and in [7] was inactive. Also, the Activity entry in series [4], in series [5] and in series [6] was “Not Active” throughout.
With `C[C@@H](Cn1c(N=C(N)N)nc(N)c2ncnc1-2)OCP(=O)(O)O`, the result in series [8], in series [9], in [10], in series [11], in [12] and in series [13] was Active. Moreover, the outcome in series [7] was Active. The outcome in [1], in series [2] and in [3] was inactive. Moreover, the Activity entry in series [4], in series [5] and in series [6] was “Not Active” each time.
Turning to `C[C@H](Cn1cnc2cnc(N=C(N)N)nc21)OCP(=O)(O)O`, the outcome in series [1], in [2], in series [3] and in series [7] was inactive. Further, the Activity result in [4], in [5] and in series [6] was “Not Active” each time.
With `C[C@H](Cn1cnc2nc(N=C(N)N)ncc21)OCP(=O)(O)O`, the result in [1], in series [2], in [3] and in [7] was inactive. In addition, the Activity entry in series [4], in series [5] and in [6] was “Not Active” in each case.
For `C[C@H](Cn1cnc2c(N=C(N)N)nc(N)nc21)OCP(=O)(O)O`, the result in series [8], in series [9], in series [10], in series [11], in [12] and in series [13] was Active. Further, the outcome in [7] was Active. For the same compound, the outcome in [1], in series [2] and in [3] was inactive. Moreover, the Activity entry in series [4], in [5] and in series [6] was “Not Active” each time.
